Reference: US20130259830A1, “CRTH2 MODULATORS” (Ironwood Pharmaceuticals, Inc., priority 2010, published 2013)

Experiments:
CRTH2 [1] = molecular target: T1, CRTH2 (Homo sapiens, UniProt Q9Y5Y4); test: Human whole blood CD11b antagonist assay (CD11b expression in eosinophils challenged with 15-R-methyl-PGD2); type: cell-based; conditions: 37° C. 10 minutes preincubation, agonist 15R-Methyl-PGD2 10 nM, eosinophils gated by flow cytometry
T1 construct: endogenous in cells; host or cells: eosinophils in human whole blood
T1 sequence (Q9Y5Y4 1-395): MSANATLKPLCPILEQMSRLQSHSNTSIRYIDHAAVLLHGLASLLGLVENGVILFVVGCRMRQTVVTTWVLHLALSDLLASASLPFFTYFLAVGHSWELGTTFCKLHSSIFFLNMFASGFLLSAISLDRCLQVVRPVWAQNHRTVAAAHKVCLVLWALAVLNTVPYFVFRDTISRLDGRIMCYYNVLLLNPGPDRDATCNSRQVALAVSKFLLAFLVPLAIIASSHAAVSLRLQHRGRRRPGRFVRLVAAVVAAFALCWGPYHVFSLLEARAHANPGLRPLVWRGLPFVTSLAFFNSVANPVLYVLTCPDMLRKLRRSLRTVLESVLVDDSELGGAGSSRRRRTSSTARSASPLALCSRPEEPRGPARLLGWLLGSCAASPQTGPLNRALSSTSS
Procedure: Human Whole Blood […] Antagonist Assay (Modified from Nicholson, et al. Pulmonary Pharmacology and Therapeutics: 20 (2007); 52-59).
The potential CRTH2 antagonist activity of certain compounds was tested in human whole blood using an assay that tests the ability of the compounds to block the CD11b expression in eosinophils by 15-R-methyl-PGD2. A CRTH2 antagonist should block CD11b expression by subsequently added 15-Methyl-PGD2. Human whole blood (200 μL) was incubated at 37° C. for 10 minutes in the presence of various concentrations of test compounds before being challenged with the agonist 1-5R-Methyl-PGD2 (10 nM). Reactions were terminated by the addition of ice-cold PBS+0.5% BSA+2 mM EDTA (1 mL) and centrifugation (300×g for 5 minutes at 4° C.) Cells were then incubated at 4° C. for 10 min in the presence of human IgG. Cells were then incubated for 30-45 min with a mixture of PE-Cy5-labeled mouse anti-human CD16 (10 ul; BD Biosciences) and FITC-labeled mouse anti-human CD11b (10 μL; Beckman Coulter.) After rinsing (1 mL ice-cold PBS+0.5% BSA+2 mM EDTA), red blood cells were lysed by the addition of 1 mL ice-cold H2O to the cell pellet for 30 sec-1 min immediately followed by the addition of 3.5% NaCl (300 μL.) Cells were then rinsed (2×−1 ml ice cold PBS+0.5% BSA+2m MEDTA) and fixed in PBS containing 1% formaldehyde. The distribution of fluorescence intensities was measured by flow cytometry. Eosinophils were gated out on the basis of their granularity (high side scatter) and absence of CD-16. CD11b was then measured on this eosinophil population on the basis of fluorescence due to FITC.

CRTH2 [2] = molecular target: T1, CRTH2; test: DPBS CD11b antagonist assay (CD11b expression in eosinophils challenged with 15R-Methyl-PGD2); type: cell-based; conditions: polymorphonuclear cells in PBS with CaCl2/MgCl2; agonist 15R-Methyl-PGD2 10 nM; eosinophils gated by flow cytometry
Procedure: DPBS CD111b Antagonist Assay.
The potential CRTH2 antagonist, activity of certain compounds was tested using a CD11b expression assay using essentially the method described by Monneret et al. (J Pharmacol Exp Ther 304:349-55, 2003). Briefly, polymorphonuclear cells (0.5 ml; 10^6/ml cells) in PBS containing 0.9 mM CaCl2 and 0.5 mM MgCl2) were preincubated with various concentrations of test compounds at room temperature for 10 minutes before they were challenged with the agonist 15R-Methyl-PGD2 (10 nM). The incubations were terminated by the addition of ice-cold FACSFlow (BD Biosciences; Cat#342003) and centrifugation (400 g for 5 minutes at 4° C.). The cells were then incubated for 30 minutes at 4° C. with a mixture of PE-labeled mouse anti-human VLA-4 (5 μl; BD Biosciences) and FITC-labeled mouse anti-human CD11b (10 μl; Beckman Coulter). The cells were then incubated with Optilyse C (0.25 ml; Beckman Coulter) for 15 minutes, centrifuged, and then fixed in PBS (0.4 ml; calcium and magnesium free) containing 1% formaldehyde. The distribution of fluorescence intensities among 60,000 cells was measured by flow cytometry. Eosinophils were gated out on the basis of their granularity (high side scatter) and labeling with VLA-4 (PE fluorescence). CD11b was then measured in the eosinophil region on the basis of fluorescence due to FITC. All data were corrected for the value obtained for the corresponding isotope control antibody.

Row | IC50 (CRTH2 [1]) | IC50 (CRTH2 [2]) | Structure (SMILES)
1 | 5 to 20 nM | < 1 nM | Cc1c(Cc2cccnc2S(=O)(=O)c2ccc(F)cc2)c2c(n1CC(=O)O)CC(C)(C)CC2=O [Compound I-5, 2-(3-((2-(4-fluorophenylsulfonyl)pyridin-3-yl)methyl)-2,6,6-trimethyl-4-oxo-4,5,6,7-tetrahydro-1H-indol-1-yl)acetic acid]
2 | – | < 1 nM | Cc1c(Cc2cc3ccccc3n2S(=O)(=O)c2ccccc2)c2c(n1CC(=O)O)CCC(C)(C)C2 [Compound I-1, 2-(2,5,5-trimethyl-3-((1-(phenylsulfonyl)-1H-indol-2-yl)methyl)-4,5,6,7-tetrahydro-1H-indol-1-yl)acetic acid]
3 | 5 to 20 nM | < 1 nM | Cc1ccc(S(=O)(=O)c2ncccc2Cc2c3c(n(CC(=O)O)c2C)CC(C)(C)CC3=O)cc1 [Compound I-20, 2-(2,6,6-Trimethyl-4-oxo-3-((2-tosylpyridin-3-yl)methyl)-4,5,6,7-tetrahydro-1H-indol-1-yl)acetic acid]
4 | 100 to 500 nM | 1 to 5 nM | Cc1c(Cc2ccccc2S(=O)(=O)N2CCCC2)c2c(n1CC(=O)O)CC(C)(C)C/C2=N\OCc1ccccc1 [Compound I-31, (E)-2-(4-(Benzyloxyimino)-2,6,6-trimethyl-3-(2-(pyrrolidin-1-ylsulfonyl)benzyl)-4,5,6,7-tetrahydro-1H-indol-1-yl)acetic acid]
5 | > 3000 nM | 100 to 500 nM | Cc1c(Cc2ccc(S(=O)(=O)c3ccccc3)s2)c2c(n1CC(=O)O)CC(C)(C)CC2=O [Compound I-26, 2-(2,6,6-Trimethyl-4-oxo-3-((5-(phenylsulfonyl)thiophen-2-yl)methyl)-4,5,6,7-tetrahydro-1H-indol-1-yl)acetic acid]
6 | 100 to 500 nM | 1 to 5 nM | CCOC(=O)N1CCN(S(=O)(=O)c2ccc(Cc3c4c(n(CC(=O)O)c3C)CCOC4)cc2)CC1 [Compound I-2, 2-(3-(4-(4-(Ethoxycarbonyl)piperazin-1-ylsulfonyl)benzyl)-2-methyl-6,7-dihydropyrano[4,3-b]pyrrol-1(4H)-yl)acetic acid]
7 | 5 to 20 nM | < 1 nM | Cc1c(Sc2ccccc2NS(=O)(=O)c2ccccc2)c2c(n1CC(=O)O)CC(C)(C)CC2 [Compound I-52, 2-(2,6,6-trimethyl-3-(2-(phenylsulfonamido)phenylthio)-4,5,6,7-tetrahydro-1H-indol-1-yl)acetic acid]
8 | > 3000 nM | 100 to 500 nM | Cc1c(Cc2cccc(N(C)S(=O)(=O)N3CCCC3)c2)c2c(n1CC(=O)O)CC(C)(C)CC2=O [Compound I-51, 2-(2,6,6-Trimethyl-3-(3-(N-methylpyrrolidine-1-sulfonamido)benzyl)-4-oxo-4,5,6,7-tetrahydro-1H-indol-1-yl)acetic acid]
9 | 1 to 5 nM | < 1 nM | Cc1c(Cc2ccccc2S(=O)(=O)N2CCOCC2)c2c(n1CC(=O)O)CCNC2=O [Compound I-50, 2-(2-Methyl-3-(2-(morpholinosulfonyl)benzyl)-4-oxo-4,5,6,7-tetrahydro-1H-pyrrolo[3,2-c]pyridin-1-yl)acetic acid]
10 | 20 to 100 nM | 1 to 5 nM | Cc1c(Cc2ccccc2NS(=O)(=O)N2CCOCC2)c2c(n1CC(=O)O)CC(C)(C)CC2=O [Compound I-49]
11 | 100 to 500 nM | 1 to 5 nM | CCOC(=O)Cn1c(C)c(Cc2cccnc2S(=O)(=O)c2ccc(C(F)(F)F)cc2)c2c1CC(C)(C)CC2=O [Compound I-10, Ethyl 2-(2,6,6-trimethyl-4-oxo-3-((2-(4-(trifluoromethyl)phenylsulfonyl)pyridin-3-yl)methyl)-4,5,6,7-tetrahydro-1H-indol-1-yl)acetate]
12 | 500 to 3000 nM | 100 to 500 nM | CCOC(=O)Cn1c(C)c(Cc2cccnc2S(=O)(=O)c2ccc(F)cc2F)c2c1CC(C)(C)CC2=O [Compound I-18, Ethyl 2-(3-((2-(2,4-difluorophenylsulfonyl)pyridin-3-yl)methyl)-2,6,6-trimethyl-4-oxo-4,5,6,7-tetrahydro-1H-indol-1-yl)acetate]
13 | 20 to 100 nM | < 1 nM | Cc1c(Cc2cc3ccccc3n2S(=O)(=O)N2CCOCC2)c2c(n1CC(=O)O)CC(C)(C)CC2=O [Compound I-37]
14 | 20 to 100 nM | < 1 nM | Cc1c(Cc2ccccc2NS(=O)(=O)c2ccc(C(C)C)cc2)c2c(n1CC(=O)O)CC(C)(C)CC2=O [Compound I-27, 2-(3-(2-(4-Isopropylphenylsulfonamido)benzyl)-2,6,6-trimethyl-4-oxo-4,5,6,7-tetrahydro-1H-indol-1-yl)acetic acid]
15 | 100 to 500 nM | 1 to 5 nM | Cc1c(Cc2ccccc2NS(=O)(=O)N2CCCC2)c2c(n1CC(=O)O)CC(C)(C)CC2=O [Compound I-40, 2-(2,6,6-Trimethyl-4-oxo-3-(2-(pyrrolidine-1-sulfonamido)benzyl)-4,5,6,7-tetrahydro-1H-indol-1-yl)acetic acid]
16 | 20 to 100 nM | < 1 nM | Cc1c(Cc2ccccc2NS(=O)(=O)c2ccc(F)cc2F)c2c(n1CC(=O)O)CC(C)(C)CC2=O [Compound I-22, 2-(3-(2-(2,4-Difluorophenylsulfonamido)benzyl)-2,6,6-trimethyl-4-oxo-4,5,6,7-tetrahydro-1H-indol-1-yl)acetic acid]
17 | 5 to 20 nM | < 1 nM | Cc1c(Cc2ccccc2S(=O)(=O)N2CCCC2)c2c(n1CC(=O)O)CCNC2=O [Compound I-39, 2-(2-Methyl-4-oxo-3-(2-(pyrrolidin-1-ylsulfonyl)benzyl)-4,5,6,7-tetrahydro-1H-pyrrolo[3,2-c]pyridin-1-yl)acetic acid]
18 | 5 to 20 nM | < 1 nM | Cc1c(Cc2cccnc2S(=O)(=O)c2ccccc2)c2c(n1CC(=O)O)CC(C)(C)CC2=O [Compound I-3, 2-(2,6,6-trimethyl-4-oxo-3-((2-(phenylsulfonyl)pyridin-3-yl)methyl)-4,5,6,7-tetrahydro-1H-indol-1-yl)acetic acid]
19 | 20 to 100 nM | 1 to 5 nM | Cc1c(Cc2ccccc2N(C)S(=O)(=O)c2ccccc2)c2c(n1CC(=O)O)CC(C)(C)CC2=O [Compound I-35, 2-(2,6,6-Trimethyl-3-(2-(N-methylphenylsulfonamido)benzyl)-4-oxo-4,5,6,7-tetrahydro-1H-indol-1-yl)acetic acid]
20 | 100 to 500 nM | 1 to 5 nM | Cc1ccc(S(=O)(=O)N(C)c2ccccc2Cc2c3c(n(CC(=O)O)c2C)CC(C)(C)CC3=O)cc1 [Compound I-33, 2-(3-(2-(N,4-dimethylphenylsulfonamido)benzyl)-2,6,6-trimethyl-4-oxo-4,5,6,7-tetrahydro-1H-indol-1-yl)acetic acid]
21 | 20 to 100 nM | 1 to 5 nM | COc1cccc(S(=O)(=O)c2ncccc2Cc2c3c(n(CC(=O)O)c2C)CC(C)(C)CC3=O)c1 [Compound I-13, 2-(3-((2-(3-Methoxyphenylsulfonyl)pyridin-3-yl)methyl)-2,6,6-trimethyl-4-oxo-4,5,6,7-tetrahydro-1H-indol-1-yl)acetic acid]
22 | < 1 nM | < 1 nM | Cc1c(Cc2sccc2S(=O)(=O)c2ccccc2)c2c(n1CC(=O)O)CC(C)(C)CC2=O [Compound I-42]
23 | 500 to 3000 nM | – | Cc1c(Sc2ccccc2N(C)S(=O)(=O)c2ccccc2)c2c(n1CC(=O)O)CC(C)(C)CC2 [Compound I-53, 2-(2,6,6-trimethyl-3-(2-(N-methylphenylsulfonamido)phenylthio)-4,5,6,7-tetrahydro-1H-indol-1-yl)acetic acid]
